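48-hour exposure; five concentrations; linearly interpolated endpoints. Here, GI50 denotes the concentration required for 50% inhibition of growth.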 Active and inactive are the calls of the source. No stated cut-off is given here; in the data, active = GI50 up to about 1.1 µM and inactive = higher.
What was measured:
Test in all cases: NCI-60 cell line screen, 48 h
[1] = system: NCI/ADR-RES
[2] = system: A549
[3] = system: CAKI-1
[4] = system: DU-145
[5] = system: HCT-116
[6] = system: SF-539
[7] = system: TK-10
[8] = system: UACC-62
[9] = system: KM12
[10] = system: OVCAR-8
[11] = system: OVCAR-4
[12] = system: RPMI-8226
[13] = system: Hs-578T
[14] = system: HOP-92
[15] = system: NCI-H460
[16] = system: SN12C
[17] = system: K562
[18] = system: HCT-15
[19] = system: PC-3
[20] = system: HCC 2998

Compound	GI50 [1]	GI50 [2]	GI50 [3]	GI50 [4]	GI50 [5]	GI50 [6]	GI50 [7]	GI50 [8]	GI50 [9]	GI50 [10]	GI50 [11]	GI50 [12]	GI50 [13]	GI50 [14]	GI50 [15]	GI50 [16]	GI50 [17]	GI50 [18]	GI50 [19]	GI50 [20]
CC(=O)O[C@H]1C[C@H]2[C@@H](OC(C)=O)/C=C3\C[C@](C)(C(=O)[C@H](O)C(=C1C)C2(C)C)[C@@H](O)C[C@@H]3OC(=O)[C@H](O)[C@H](c1ccccc1)N(C)C	> 100 µM (inactive)	> 100 µM (inactive)	> 100 µM (inactive)	> 100 µM (inactive)	> 100 µM (inactive)	> 100 µM (inactive)	> 100 µM (inactive)	> 100 µM (inactive)	> 100 µM (inactive)	> 100 µM (inactive)	> 100 µM (inactive)	> 100 µM (inactive)	> 100 µM (inactive)	> 100 µM (inactive)	> 100 µM (inactive)	> 100 µM (inactive)	> 100 µM (inactive)	> 100 µM	> 100 µM (inactive)	–
COC(=O)[C@@H]1c2c(oc3cc(CO)cc(O)c3c2=O)C=C[C@H]1O	17.9 µM (inactive)	16.8 µM (inactive)	8 µM (inactive)	3.24 µM (inactive)	2.3 µM (inactive)	2.67 µM (inactive)	2.34 µM (inactive)	12.3 µM (inactive)	3.71 µM (inactive)	5.56 µM (inactive)	3.52 µM (inactive)	2.49 µM (inactive)	24.7 µM (inactive)	8.63 µM (inactive)	18.6 µM (inactive)	9.86 µM (inactive)	3.28 µM (inactive)	2.7 µM	7.18 µM (inactive)	–
O=[N+]([O-])c1ccc2nc(Cl)n[n+]([O-])c2c1	24.3 µM (inactive)	22 µM (inactive)	16 µM (inactive)	17.9 µM (inactive)	12.7 µM (inactive)	11.7 µM (inactive)	16.8 µM (inactive)	14 µM (inactive)	23.2 µM (inactive)	15.2 µM (inactive)	12.2 µM (inactive)	2.89 µM (inactive)	37 µM (inactive)	–	20.3 µM (inactive)	16.1 µM (inactive)	1.15 µM (inactive)	13.4 µM	13 µM (inactive)	16.3 µM (inactive)
Clc1ccc(-c2ccc(-c3nn4c(CNc5ccccc5)nnc4s3)o2)c(Cl)c1	81.7 µM (inactive)	72.3 µM (inactive)	> 100 µM (inactive)	> 100 µM (inactive)	43.6 µM (inactive)	22.5 µM (inactive)	> 100 µM (inactive)	–	60 µM (inactive)	68.7 µM (inactive)	> 100 µM (inactive)	36.6 µM (inactive)	> 100 µM (inactive)	29.2 µM (inactive)	85.9 µM (inactive)	> 100 µM (inactive)	43.7 µM (inactive)	48.1 µM	54.2 µM (inactive)	–
C/C(=N\O)c1ccc(Nc2nc3ccccc3c3occc23)cc1	6.76 µM (inactive)	3.87 µM (inactive)	3.15 µM (inactive)	9.57 µM (inactive)	4.89 µM (inactive)	6.68 µM (inactive)	2.9 µM (inactive)	14.7 µM (inactive)	3.77 µM (inactive)	15.2 µM (inactive)	–	2.58 µM (inactive)	9.18 µM (inactive)	6.78 µM (inactive)	1.82 µM (inactive)	13.1 µM (inactive)	2.19 µM (inactive)	2.55 µM	10.6 µM (inactive)	4.1 µM (inactive)
CC(=O)N1c2ccccc2C23CCN(C)CC4C(C)OCC(C4CC2=O)C13 (configuration not stated)	> 100 µM (inactive)	> 100 µM (inactive)	> 100 µM (inactive)	> 100 µM (inactive)	> 100 µM (inactive)	> 100 µM (inactive)	> 100 µM (inactive)	> 100 µM (inactive)	> 100 µM (inactive)	> 100 µM (inactive)	> 100 µM (inactive)	–	> 100 µM (inactive)	> 100 µM (inactive)	> 100 µM (inactive)	> 100 µM (inactive)	> 100 µM (inactive)	> 100 µM	> 100 µM (inactive)	> 100 µM (inactive)
N#Cc1c(N)nc2[nH]nc(N)c2c1-c1ccc(Cl)cc1	7.66 µM (inactive)	5.66 µM (inactive)	3.02 µM (inactive)	4.8 µM (inactive)	5.52 µM (inactive)	6.38 µM (inactive)	2.1 µM (inactive)	1.42 µM (inactive)	4.12 µM (inactive)	6.75 µM (inactive)	8.95 µM (inactive)	–	2.5 µM (inactive)	1.81 µM (inactive)	3.15 µM (inactive)	3.32 µM (inactive)	16.9 µM (inactive)	3.82 µM	2.65 µM (inactive)	10 µM (inactive)

From ChEMBL document CHEMBL1201862, “PubChem BioAssay data set” (2004)
